Test results from publication PMC5219024, “New acetylenic derivatives of betulin and betulone, synthesis and cytotoxic activity” (Medicinal Chemistry Research, 2016).
≈ marks a conversion by molar mass, not a printed value.

What was measured:
[1] = tested on: T47D (human breast cancer); test: Antiproliferative assay in vitro (SRB), T47D; type: cell-based; conditions: human T47D; 96 h exposure; 1 to 100 µg/mL; Neg = negative in the concentration used; read-out: Cytotoxic activity IC50, T47D
Method: (§1) The tested cell lines were obtained from the American Type Culture Collection (Rockville, Maryland, USA) and maintained at the Cell Culture Collection of the Institute of Immunology and Experimental Therapy (Wrocław, Poland). The cells were seeded in 96-well plates (Sarstedt, USA) at a density of 10^4 cells per well in 100 µL of culture medium overnight. […] The normal mouse fibroblasts BALB3T3 was cultured in Dulbecco’s modified Eagle’s medium (Sigma-Aldrich, Chemie GmbH, Steinheim, Germany) supplemented with 2 mM glutamine (Sigma-Aldrich, Chemie GmbH, Steinheim, Germany) and 10 % fetal calf serum FBS (Sigma-Aldrich, Chemie GmbH, Steinheim, Germany). The all culture media were supplemented with streptomycin (100 µg/mL) and penicillin (100 U/mL) (both antibiotics from Polfa, Tarchomin, Poland). The cell cultures were maintained at 37 °C in humid atmosphere saturated with 5 % CO2. This technique as first was described by Skehan et al. in [1990]. The SRB assay was performed after 96 h exposure of the cultured cells to varying concentrations (ranging from 1 to 100 µg/mL) of the tested substances. The reported derivatives as well as betulin 1 were dissolved in 10 % dimethyl sulfoxide (DMSO) to concentration of 1 mg/mL, and next diluted in culture medium to reach the required concentrations. […] The cells fastened to the plastic were fixed mildly layering cold 50 % TCA (trichloroacetic acid, Aldrich-Chemie, Germany) on the top of the culture medium in each well. The plates were incubated at 4 °C for 1 h and then washed five times with tap water. The cells fixed with TCA were stained with 0.4 % sulforhodamine B (SRB, Sigma, Germany) dissolved in 1 % acetic acid (POCH, Gliwice, Poland) for 30 min. The unbound dye was removed by rinsing four times with 1 % acetic acid. The protein-bound dye was extracted with 10 mM unbuffered tris base (POCH, Gliwice, Poland) and then determined the optical density at 540 nm in a computer-interfaced, 96-well microtiter plate reader Multiscan RC photometer (Labsystems, Helsinki, Finland). The compounds in given concentration were examined in triplicates in each experiment which was repeated 3–5 times. The results of cytotoxic activity in vitro were expressed as an IC50 in µg/mL.

[2] = tested on: CCRF/CEM (human leukemia); test: Antiproliferative assay in vitro (MTT), CCRF/CEM; type: cell-based; conditions: human CCRF/CEM; 96 h exposure; 1 to 100 µg/mL; Neg = negative in the concentration used; read-out: Cytotoxic activity IC50, CCRF/CEM
Method: (§2) The tested cell lines were obtained from the American Type Culture Collection (Rockville, Maryland, USA) and maintained at the Cell Culture Collection of the Institute of Immunology and Experimental Therapy (Wrocław, Poland). The cells were seeded in 96-well plates (Sarstedt, USA) at a density of 10^4 cells per well in 100 µL of culture medium overnight. […] The normal mouse fibroblasts BALB3T3 was cultured in Dulbecco’s modified Eagle’s medium (Sigma-Aldrich, Chemie GmbH, Steinheim, Germany) supplemented with 2 mM glutamine (Sigma-Aldrich, Chemie GmbH, Steinheim, Germany) and 10 % fetal calf serum FBS (Sigma-Aldrich, Chemie GmbH, Steinheim, Germany). The all culture media were supplemented with streptomycin (100 µg/mL) and penicillin (100 U/mL) (both antibiotics from Polfa, Tarchomin, Poland). The cell cultures were maintained at 37 °C in humid atmosphere saturated with 5 % CO2. The MTT assay was used for the cytotoxicity screening against leukemia cells growing in suspension culture. This assay was performed after 96 h of the leukemia cells to varying concentrations (ranging from 1 to 100 µg/mL) of the tested substances. The derivatives of betulin were dissolved in 10 % DMSO to concentration of 1 mg/mL, and next diluted in culture medium to reach the required concentrations. […] During the last 3–4 h of incubation 20 µl of MTT solution were added to each well (MTT: 3-(4,5-dimethylthiazol-2-yl)-2,5-diphenyl tetrazolium bromide; stock solution: 5 mg/mL). The pale yellow MTT is reduced to a navy blue formazan in the mitochondria of living cells. At the end of incubation time, 80 µL of the lysing mixture was added to each well (lysing mixture: 225 mL dimethylformamide, 67.5 g sodium dodecyl sulfate and 275 mL of distilled water). After 24 h are formed the crystals of formazan, which are insoluble in aqueous solutions. The formazan crystals had been dissolved. The optical densities were read on a Multiskan RC photometer at 570 nm wavelength. The compounds in given concentration were examined in triplicates in each experiment which was repeated 3–5 times. The results of cytotoxic activity in vitro were expressed as an IC50 in µg/mL.

SW707 (human colorectal) [3] = test: Antiproliferative assay in vitro (SRB), SW707; type: cell-based; conditions: human SW707; 96 h exposure; 1 to 100 µg/mL; Neg = negative in the concentration used; read-out: Cytotoxic activity IC50, SW707
Method: as §1

P388 (mouse leukemia) [4] = test: Antiproliferative assay in vitro (MTT), P388; type: cell-based; conditions: Mus musculus; murine P388; 96 h exposure; 1 to 100 µg/mL; Neg = negative in the concentration used; read-out: Cytotoxic activity IC50, P388
Method: as §2

[5] = Antiproliferative assay in vitro (SRB), BALB3T3; type: cell-based, mouse; conditions: mouse; murine BALB3T3 normal fibroblasts; 96 h exposure; 1 to 100 µg/mL; Neg = negative in the concentration used; read-out: Cytotoxic activity IC50, BALB3T3
Method: as §1

[6] = tested on: HL-60 (human promyelocytic leukemia); test: Antiproliferative assay in vitro (MTT), HL-60; type: cell-based; conditions: for IC50: Homo sapiens, HL-60 cancer cell line, 96 h exposure, read-out: Cytotoxic activity IC50, HL-60
Method: as §2

[7] = tested on: T47D (human breast cancer); parameters: method as in Boryczka et al. ([2013a], [b]); conditions: Neg = negative in the concentration used, ref Boryczka et al. ([2013a], [b]); cited from earlier work
[8] = tested on: CCRF/CEM (human leukemia); parameters: method as in Boryczka et al. ([2013a], [b]); conditions: Neg = negative in the concentration used, ref Boryczka et al. ([2013a], [b]); cited from earlier work
SW707 (human colorectal) [9] = tested on: SW707 (human colorectal); parameters: method as in Boryczka et al. ([2013a], [b]); conditions: Neg = negative in the concentration used, ref Boryczka et al. ([2013a], [b]); cited from earlier work
P388 (mouse leukemia) [10] = tested on: P388 (mouse leukemia); parameters: method as in Boryczka et al. ([2013a], [b]); conditions: murine P388; Neg = negative in the concentration used; ref Boryczka et al. ([2013a], [b]); cited from earlier work
[11] = tested on: BALB3T3 normal mouse fibroblasts; parameters: method as in Boryczka et al. ([2013a], [b]); conditions: murine BALB3T3 normal fibroblasts; Neg = negative in the concentration used; ref Boryczka et al. ([2013a], [b]); cited from earlier work
[12] = tested on: cyprid larvae of the barnacle Balanus albicostatus; parameters: method as in Chen et al., [2011]; conditions: ref Chen et al., [2011]; cited from earlier work
[13] = tested on: mouse melanoma (B16 2F2) cell line; parameters: method as in Hata et al., [2002]; conditions: ref Hata et al., [2002], read-out: anticancer effect IC50, B16 2F2; cited from earlier work

Row | SMILES | IC50 [1] | IC50 [2] | IC50 (SW707 (human colorectal) [3]) | IC50 (P388 (mouse leukemia) [4]) | IC50 at 96 h [5] | IC50 [6] | melting point | Cytotoxic activity IC50, T47D [7] | Cytotoxic activity IC50, CCRF/CEM [8] | Cytotoxic activity IC50, SW707 (SW707 (human colorectal) [9]) | Cytotoxic activity IC50, P388 (P388 (mouse leukemia) [10]) | Cytotoxic activity IC50, BALB3T3 [11] | antifouling activity EC50 [12] | IC50 [13] | fold potent than betulin 1 against HL-60 ([6]; relative to betulin 1, HL-60)
1 | C=CC(=O)OC[C@]12CC[C@@H](C(=C)C)C1C1CCC3[C@@]4(C)CC[C@H](O)C(C)(C)C4CC[C@@]3(C)[C@]1(C)CC2 (stereo partly drawn) [Compound 4, 28-O-(2-Propenoyl)betulin] | 7.1 ± 2.7 µg/mL (≈ 14.3 µM) | 19.6 ± 9.5 µg/mL (≈ 39.5 µM) | 29.6 ± 4.2 µg/mL (≈ 59.6 µM) | 9.9 ± 5.9 µg/mL (≈ 19.9 µM) | 24.3 ± 6.9 µg/mL (≈ 48.9 µM) | 18.8 ± 4.8 µg/mL (≈ 37.8 µM) | 117 to 121 °C |  |  |  |  |  |  |  | 
2 | C=C(C)[C@@H]1CC[C@]2(COC(=O)CC)CC[C@]3(C)C(CCC4[C@@]5(C)CC[C@H](O)C(C)(C)C5CC[C@]43C)C12 (stereo partly drawn) [Compound 3] |  |  |  |  |  | 29.3 ± 3.4 µg/mL (≈ 58.7 µM) |  | 12.1 ± 4.4 µg/mL | 8.1 ± 0.9 µg/mL | 29.2 ± 24.4 µg/mL | 3.3 ± 0.8 µg/mL | 32.3 ± 23.0 µg/mL |  |  | 
3 | C=C(C)[C@@H]1CC[C@]2(COC(=O)C#Cc3ccccc3)CC[C@]3(C)C(CCC4[C@@]5(C)CC[C@H](O)C(C)(C)C5CC[C@]43C)C12 (stereo partly drawn) [Compound 7] |  |  |  |  |  |  |  | Neg | 49.0 ± 9.8 µg/mL | Neg | Neg | Neg |  |  | 
4 | C=C(C)[C@@H]1CC[C@]2(CO)CC[C@]3(C)[C@H](CC[C@@H]4[C@@]5(C)CCC(=O)C(C)(C)[C@@H]5CC[C@]43C)[C@@H]12 [Betulone 2, lup-20(29)-en-28-ol-3-one] |  |  |  |  |  |  |  |  |  |  |  |  | 8.73 µg/mL | 29.3 µM | 
5 | C#CC(=O)OC[C@]12CC[C@@H](C(=C)C)C1C1CCC3[C@@]4(C)CC[C@H](O)C(C)(C)C4CC[C@@]3(C)[C@]1(C)CC2 (stereo partly drawn) [Compound 5, 28-O-propynoylbetulin] |  |  |  |  |  | 0.3 ± 0.004 µg/mL (≈ 0.606 µM) |  | 9.1 ± 1.9 µg/mL | 0.02 ± 0.001 µg/mL | 14.9 ± 3.3 µg/mL | 0.4 ± 0.1 µg/mL | 0.3 ± 0.05 µg/mL |  |  | 24 fold
